In ChEMBL document CHEMBL3046485, “Photodynamic activities of protoporphyrin IX and its dopamine conjugate against cancer and bacterial cell viability” (2012):
In brackets after ≈: the same amount, converted by molar mass. Activity calls are given as the source filed them. No cut-off for these calls is given here.

Columns and labels:
Bacillus subtilis [1] = assay: Antibacterial activity against Bacillus subtilis ATCC 6633 after 24 hr by two-fold serial dilution method; assay type: functional; conditions: ATCC 6633, 24 h
Pseudomonas aeruginosa [2] = assay: Antibacterial activity against Pseudomonas aeruginosa ATCC 27853 after 24 hr by two-fold serial dilution method; assay type: functional; conditions: ATCC 27853, 24 h
Escherichia coli [3] = assay: Antibacterial activity against Escherichia coli ATCC 25922 after 24 hr by two-fold serial dilution method; assay type: functional; conditions: ATCC 25922, 24 h
HeLa [4] = assay: Cytotoxicity against Homo sapiens (human) HeLa cells at 30 uM compound photoirradiated for 20 min followed by 24 hr incubation by LDH release assay; assay type: functional, cell-based
U-87MG ATCC [5] = assay: Antiproliferative activity against Homo sapiens (human) U87 cells at 5 uM after 24 hr by WST-1 assay; assay type: functional, cell-based
HeLa [6] = assay: Antiproliferative activity against Homo sapiens (human) HeLa cells at 5 uM after 24 hr by WST-1 assay; assay type: functional, cell-based
HeLa [7] = assay: Antiproliferative activity against Homo sapiens (human) HeLa cells at 5 uM compound photoirradiated for 20 min followed by 24 hr incubation by WST-1 assay; assay type: functional, cell-based
HeLa [8] = assay: Cytotoxicity against Homo sapiens (human) HeLa cells compound at 1 to 30 uM after 24 hr by LDH release assay; assay type: functional, cell-based
Escherichia coli [9] = assay: Antibacterial activity against Escherichia coli ATCC 25922 compound photoirradiated for 20 min followed by 24 hr incubation by two-fold serial dilution method; assay type: functional; conditions: ATCC 25922, light or radiation study
U-87MG ATCC [10] = assay: Antiproliferative activity against Homo sapiens (human) U87 cells at 5 uM compound photoirradiated for 20 min followed by 24 hr incubation by WST-1 assay; assay type: functional, cell-based
Bacillus subtilis [11] = assay: Antibacterial activity against Bacillus subtilis ATCC 6633 at 16 ug/ml after 24 hr by two-fold serial dilution method; assay type: functional, organism-based
U-87MG ATCC [12] = assay: Cytotoxicity against Homo sapiens (human) U87 cells at 1 to 30 uM after 24 hr by LDH release assay; assay type: functional, cell-based
SH-SY5Y [13] = assay: Cytotoxicity against Homo sapiens (human) SH-SY5Y cells compound photoirradiated for 20 min followed by 24 hr incubation by LDH release assay; assay type: functional, cell-based
Pseudomonas aeruginosa [14] = assay: Bacteriostatic activity against Pseudomonas aeruginosa ATCC 27853 after 24 hr by two-fold serial dilution method; assay type: functional, organism-based
SH-SY5Y [15] = assay: Antiproliferative activity against Homo sapiens (human) SH-SY5Y cells at 5 uM after 24 hr by WST-1 assay; assay type: functional, cell-based
SH-SY5Y [16] = assay: Antiproliferative activity against Homo sapiens (human) SH-SY5Y cells at 5 uM compound photoirradiated for 20 min followed by 24 hr incubation by WST-1 assay; assay type: functional, cell-based
Pseudomonas aeruginosa [17] = assay: Antibacterial activity against Pseudomonas aeruginosa ATCC 27853 compound photoirradiated for 20 min followed by 24 hr incubation by two-fold serial dilution method; assay type: functional; conditions: ATCC 27853, light or radiation study
U-87MG ATCC [18] = assay: Cytotoxicity against Homo sapiens (human) U87 cells compound photoirradiated for 20 min followed by 24 hr incubation by LDH release assay; assay type: functional, cell-based
SH-SY5Y [19] = assay: Cytotoxicity against Homo sapiens (human) SH-SY5Y cells at 1 to 30 uM after 24 hr by LDH release assay; assay type: functional, cell-based
SH-SY5Y [20] = assay: Cytotoxicity against Homo sapiens (human) SH-SY5Y cells at 30 uM compound photoirradiated for 20 min followed by 24 hr incubation by LDH release assay; assay type: functional, cell-based
HeLa [21] = assay: Cytotoxicity against Homo sapiens (human) HeLa cells compound photoirradiated for 20 min followed by 24 hr incubation by LDH release assay; assay type: functional, cell-based
Bacillus subtilis [22] = assay: Antibacterial activity against Bacillus subtilis ATCC 6633 compound photoirradiated for 20 min followed by 24 hr incubation by two-fold serial dilution method; assay type: functional; conditions: ATCC 6633, light or radiation study
U-87MG ATCC [23] = assay: Cytotoxicity against Homo sapiens (human) U87 cells at 30 uM compound photoirradiated for 20 min followed by 24 hr incubation by LDH release assay; assay type: functional, cell-based
Bacillus subtilis [24] = assay: Antibacterial activity against Bacillus subtilis ATCC 6633 at 16 ug/ml compound photoirradiated for 20 min followed by 24 hr incubation by two-fold serial dilution method; assay type: functional, organism-based

For CN(C)[C@@H]1C(O)=C(C(N)=O)C(=O)[C@@]2(O)C(O)=C3C(=O)c4c(O)cccc4[C@@](C)(O)[C@H]3C[C@@H]12 [TETRACYCLINE], the MIC (Bacillus subtilis [1]) was 8 µg/mL (≈ 18 µM), the MIC (Pseudomonas aeruginosa [2]) was 1 µg/mL (≈ 2.25 µM) and the MIC (Escherichia coli [3]) was 2 µg/mL (≈ 4.5 µM).

In the case of CC[C@H]1OC(=O)[C@H](C)[C@@H](O[C@H]2C[C@@](C)(OC)[C@@H](O)[C@H](C)O2)[C@H](C)[C@@H](O[C@@H]2O[C@H](C)C[C@H](N(C)C)[C@H]2O)[C@](C)(O)C[C@@H](C)C(=O)[C@H](C)[C@@H](O)[C@]1(C)O [ERYTHROMYCIN], the MIC (Bacillus subtilis [1]) is reported as < 0.125 µg/mL, the MIC (Pseudomonas aeruginosa [2]) is reported as < 0.125 µg/mL and the MIC (Escherichia coli [3]) is reported as 128 µg/mL (≈ 174 µM).

In the case of C=CC1=C(C)c2cc3[nH]c(cc4nc(cc5[nH]c(cc1n2)c(C)c5CCC(=O)O)C(CCC(=O)O)=C4C)c(C)c3C=C [PROTOPORPHYRIN], the Activity (HeLa [4]) is reported as “inactive”, the MIC (Bacillus subtilis [1]) is reported as 100 µg/mL (≈ 178 µM) and the Activity (U-87MG ATCC [5]) is reported as “inactive”. The Activity (HeLa [6]) was “inactive”, the Activity (HeLa [7]) was “Active” and the Activity (HeLa [8]) was “inactive”. For the same molecule, the MIC (Escherichia coli [9]) was 128 µg/mL (≈ 227 µM), the MIC (Pseudomonas aeruginosa [2]) was 128 µg/mL (≈ 227 µM) and the Activity (U-87MG ATCC [10]) was “Active”. The Activity (Bacillus subtilis [11]) was “Active”, the Activity (U-87MG ATCC [12]) was “inactive” and the Activity (SH-SY5Y [13]) was “Dose-dependent effect”. The Activity (Pseudomonas aeruginosa [14]) was “Active”, the Activity (SH-SY5Y [15]) was “inactive” and the Activity (SH-SY5Y [16]) was “Active”. For the same molecule, the MIC (Pseudomonas aeruginosa [17]) was 128 µg/mL (≈ 227 µM), the Activity (U-87MG ATCC [18]) was “Dose-dependent effect” and the Activity (SH-SY5Y [19]) was “inactive”. The Activity (SH-SY5Y [20]) was “inactive”, the Activity (HeLa [21]) was “Dose-dependent effect” and the MIC (Bacillus subtilis [22]) was 80 µg/mL (≈ 142 µM). The MIC (Escherichia coli [3]) was 128 µg/mL (≈ 227 µM), the Activity (U-87MG ATCC [23]) was “inactive” and the Activity (Bacillus subtilis [24]) was “inactive”.

CCn1cc(C(=O)O)c(=O)c2ccc(C)nc21 [NALIDIXIC ACID] gave an MIC (Bacillus subtilis [1]) of 8 µg/mL (≈ 34.4 µM), an MIC (Pseudomonas aeruginosa [2]) of 2 µg/mL (≈ 8.61 µM) and an MIC (Escherichia coli [3]) of 16 µg/mL (≈ 68.9 µM).

With C=Cc1c(C)c2cc3[nH]c(cc4nc(cc5nc(cc1[nH]2)C(C)=C5CCC(=O)NCCc1ccc(O)c(O)c1)C(CCC(=O)NCCc1ccc(O)c(O)c1)=C4C)c(C)c3C=C the Activity (HeLa [4]) was “inactive”, the MIC (Bacillus subtilis [1]) was 100 µg/mL (≈ 120 µM) and the Activity (U-87MG ATCC [5]) was “inactive”. The Activity (HeLa [6]) was “inactive”, the Activity (HeLa [7]) was “Active” and the Activity (HeLa [8]) was “inactive”. For the same molecule, the MIC (Escherichia coli [9]) was 128 µg/mL (≈ 154 µM), the MIC (Pseudomonas aeruginosa [2]) was 128 µg/mL (≈ 154 µM) and the Activity (U-87MG ATCC [10]) was “Active”. The Activity (Bacillus subtilis [11]) was “Active”, the Activity (U-87MG ATCC [12]) was “inactive” and the Activity (SH-SY5Y [13]) was “Dose-dependent effect”. The Activity (Pseudomonas aeruginosa [14]) was “Active”, the Activity (SH-SY5Y [15]) was “inactive” and the Activity (SH-SY5Y [16]) was “Active”. The MIC (Pseudomonas aeruginosa [17]) was 128 µg/mL (≈ 154 µM), the Activity (U-87MG ATCC [18]) was “Dose-dependent effect” and the Activity (SH-SY5Y [19]) was “inactive”. The Activity (SH-SY5Y [20]) was “inactive”, the Activity (HeLa [21]) was “Dose-dependent effect” and the MIC (Bacillus subtilis [22]) was 80 µg/mL (≈ 96 µM). The MIC (Escherichia coli [3]) was 128 µg/mL (≈ 154 µM), the Activity (U-87MG ATCC [23]) was “inactive” and the Activity (Bacillus subtilis [24]) was “inactive”.

With CC1(C)S[C@@H]2[C@H](NC(=O)[C@H](N)c3ccccc3)C(=O)N2[C@H]1C(=O)O [AMPICILLIN] the MIC (Bacillus subtilis [1]) was > 256 µg/mL, the MIC (Pseudomonas aeruginosa [2]) was 128 µg/mL (≈ 366 µM) and the MIC (Escherichia coli [3]) was > 256 µg/mL.

In the case of CN[C@@H]1[C@H](O[C@H]2[C@H](O[C@H]3[C@H](O)[C@@H](O)[C@H](N=C(N)N)[C@@H](O)[C@@H]3N=C(N)N)O[C@@H](C)[C@]2(O)C=O)O[C@@H](CO)[C@H](O)[C@H]1O [STREPTOMYCIN], the MIC (Bacillus subtilis [1]) is reported as 16 µg/mL (≈ 27.5 µM), the MIC (Pseudomonas aeruginosa [2]) is reported as 64 µg/mL (≈ 110 µM) and the MIC (Escherichia coli [3]) is reported as > 256 µg/mL.

For NC[C@H]1O[C@H](O[C@H]2[C@H](O)[C@@H](O[C@H]3O[C@H](CO)[C@@H](O)[C@H](N)[C@H]3O)[C@H](N)C[C@@H]2N)[C@H](O)[C@@H](O)[C@@H]1O [KANAMYCIN], the MIC (Bacillus subtilis [1]) was > 256 µg/mL, the MIC (Pseudomonas aeruginosa [2]) was 2 µg/mL (≈ 4.13 µM) and the MIC (Escherichia coli [3]) was 16 µg/mL (≈ 33 µM).
